One data set has as its system NCI-H460. Description: Inhibition test on cell proliferation (MTT), NCI-H460. Format: cell-based, human. To be noted: 72 hours of drug treatment, MTT, read-out: IC50 (nM) NCI-H460. The essentials:
(§1)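 Cells plated at 2000-6000 per well, allowed to adhere for 24 h, then exposed to serially diluted compound for 72 h at 37 °C, 5% CO2. Viability read by MTT reduction, with formazan dissolved in DMSO and absorbance taken at 490 nm. Inhibition rate calculated relative to untreated and zero-setting wells.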

A further data set relates to HT-29. The data set is described as follows: Inhibition test on cell proliferation (MTT), HT-29. Type of data set: cell-based, human. To be noted: 72 hours of drug treatment. The procedure: (§2) Tumor cells (NCI-H460, BxPC-3, HT-29, HCC-LM3) in the logarithmic growth phase were digested, centrifuged, and the supernatants were removed. Cells were resuspended by adding fresh culture medium, and counted using a cell counting plate. 100 μL of culture medium (containing cells) was added to a 96-well plate according to the standard of 2000 to 6000 cells per well and incubated in an incubator (37° C., 5% CO2) for 24 hours. After the cells were completely adhered to the wall, the test sample and Plinabulin were diluted to different concentrations using fresh culture medium, and 4 wells were set for each concentration. After 72 hours of drug treatment, the culture medium was removed, and 20 μL of MTT at a concentration of 5 mg/mL was added to each well. After 3-4 hours in the incubator, the MTT was discarded, and 100 μL of DMSO was added to each well, and placed in a 96-well plate shaker to completely dissolve the purple formazan. Subsequently, the absorbance (OD value) was detected at a wavelength of 490 nm using a microplate reader. The experiment also required setting up zero-setting wells (blank culture medium, MTT, DMSO). Cell inhibition rate=1−(OD value of drug-dosed group−OD value of zero-setting group)/(OD value of blank group−OD value of zero-setting group)×100%.

Another data set concerns HCC-LM3. The data set is described as follows: Inhibition test on cell proliferation (MTT), HCC-LM3. To be noted: 72 hours of drug treatment, MTT, read-out: IC50 (nM) HCC-LM3. Type of data set: cell-based, human. As for the experimental part:
as §2

Data set [1] in a line: Compound solubility experiment, Method 1: equilibrium solubility in pure water, LC-MS. The settings on record: ultrapure water, 37±1° C., shaken 24 hours; for solubility at 24 h: 37 °C, thermodynamic from solid. Format: physicochemical. The procedure: Method 1: A 1.5 mL brown EP tube was taken, about 1 mg of compound was weighed respectively, and 1 mL of ultrapure water was added thereto. The mixture was vortexed, and sonicated until the compound was no longer dissolved (the solution was turbid or had suspended particles). The mixture was put into an incubation shaker, maintained at a temperature of (37±1° C.), shaken at 100 r/min for 24 hours, so as to achieve full dissolution equilibrium. After 24 hours, the supernatant was quickly filtered through a 0.45 μm microporous membrane, and the initial filtrate was discarded. 200 μL of the renewed filtrate was taken and diluted with 200 μL of methanol. The assay was repeated at least three times. According to the chromatographic conditions, the sample was injected by LC-MS, and the peak area was measured and the equilibrium solubility of each 2,5-diketopiperazine derivative in pure water was calculated.

The subject of the next data set is BxPC-3. Description: Inhibition test on cell proliferation (MTT), BxPC-3. Format: cell-based, human. To be noted: 72 hours of drug treatment, MTT, read-out: IC50 (nM) BxPC-3. The essentials: as §1

Counter-ions that a name gives are not always drawn. Like-named read-outs stand apart in the source and are kept apart here. Where only a bound is given, the exact number is not on record here.

As for `CC(C)c1c(/C=c2\[nH]c(=O)/c(=C/c3cccc(C(=O)c4ccc(F)cc4)c3)[nH]c2=O)ncn1CCCN1CCOCC1` [PLN-2-1, (3Z,6Z)-3-(3-(p-fluorobenzoyl)phenyl)methylene-6-((5-isopropyl-1-(3-morpholinyl)propylimidazol-4-yl)methylene)piperazine-2,5-dione], the IC50 was found to be 3.45 ± 0.33 nM in the data set with NCI-H460, 1.03 ± 0.11 nM in the data set on HT-29, 4.2 ± 0.12 nM in the data set with HCC-LM3 and 2.29 ± 0.82 nM with BxPC-3. For the same molecule, in data set [1], the solubility at 24 h is less than 0.5 µg/mL.
For the molecule `O=C(c1ccc(F)cc1)c1cccc(/C=c2\[nH]c(=O)/c(=C/c3ncn(CCCN4CCOCC4)c3C3CC3)[nH]c2=O)c1` [PLN-2-3], the IC50 stood at 4.9 ± 0.61 nM in the data set on NCI-H460 (Homo sapiens, NCI-H460, 72 h); 2.15 ± 0.33 nM in the data set with HT-29 (Homo sapiens, HT-29, 72 h); 6.31 ± 0.16 nM with HCC-LM3 (Homo sapiens, HCCLM3, 72 h); 1.43 ± 0.95 nM in the data set on BxPC-3 (Homo sapiens, BXPC-3, 72 h). In data set [1], this molecule had a solubility at 24 h of less than 0.25 µg/mL.
On to `O=c1[nH]/c(=C\c2ncn(CCCN3CCOCC3)c2C2CC2)c(=O)[nH]/c1=C\c1cccc(Oc2ccc(F)cc2)c1` [PLN-2-4], for which, in the data set with NCI-H460 (Homo sapiens, NCI-H460, 72 h), the IC50 stood at 25.7 ± 2.62 nM. Also, the solubility at 24 h in data set [1] is less than 0.5 µg/mL.
Consider `CC(C)c1c(/C=c2\[nH]c(=O)/c(=C/c3cccc(F)c3)[nH]c2=O)ncn1CCCN1CCOCC1` [PLN-2-9, (3Z,6Z)-3-fluorophenylmethylene-6-((5-isopropyl-1-(−3-morpholinyl)propylimidazol-4-yl)methylene)piperazine-2,5-dione], for which the IC50 in the data set on NCI-H460 (Homo sapiens, NCI-H460, 72 h) is 8.51 ± 0.1 nM; in the data set with HT-29 (Homo sapiens, HT-29, 72 h) it was 4.37 ± 0.62 nM; with HCC-LM3 (Homo sapiens, HCCLM3, 72 h), 5.13 ± 0.12 nM; in the data set on BxPC-3 (Homo sapiens, BXPC-3, 72 h) it was 5.47 ± 0.57 nM. The molecule further registered a solubility at 24 h in data set [1] of less than 0.5 µg/mL.
Molecule `Cc1ccccc1/C=c1\[nH]c(=O)/c(=C/c2ncn(CCCN3CCOCC3)c2C(C)C)[nH]c1=O` [PLN-2-49, (3Z,6Z)-3-(2-Methylphenyl)methylene-6-((5-isopropyl-1-(3-morpholinyl)propylimidazol-4-yl)methylene)piperazine-2,5-dione] had a melting point of 169 to 171 °C. The IC50 in the data set with NCI-H460 (Homo sapiens, NCI-H460, 72 h) was determined as 33.7 ± 0.7 nM. Besides, in the data set on HT-29 (Homo sapiens, HT-29, 72 h), the IC50 came to 35.2 ± 2.15 nM. Besides, the IC50 in the data set on HCC-LM3 (Homo sapiens, HCCLM3, 72 h) came to 18.4 ± 1.42 nM. The IC50 in the data set on BxPC-3 (Homo sapiens, BXPC-3, 72 h) is 27.3 ± 2.75 nM.
Taken in the same sequence, the figures for `Cc1cccc(/C=c2\[nH]c(=O)/c(=C/c3ncn(CCCN4CCOCC4)c3C(C)C)[nH]c2=O)c1C` [PLN-2-50, (3Z,6Z)-3-(2,3-Dimethylphenyl)methylene-6-((5-isopropyl-1-(3-morpholinyl)propylimidazol-4-yl)methylene)piperazine-2,5-dione] were 164 to 166 °C, 41.3 ± 1.25 nM, 37.1 ± 3.15 nM, 20.8 ± 2.56 nM and 23 ± 1.56 nM.
Taken in the same sequence, the figures for `Cc1cccc(/C=c2\[nH]c(=O)/c(=C/c3ncn(CCCN4CCOCC4)c3C(C)C)[nH]c2=O)c1` [PLN-2-51, (3Z,6Z)-3-(3-Methylphenyl)methylene-6-((5-isopropyl-1-(3-morpholinyl)propylimidazol-4-yl)methylene)piperazine-2,5-dione] were 178 to 180 °C, 21.7 ± 3.04 nM, 9.03 ± 0.29 nM, 7.49 ± 0.12 nM and 13.9 ± 3.21 nM.
`COc1cccc(/C=c2\[nH]c(=O)/c(=C/c3ncn(CCCN4CCOCC4)c3C(C)C)[nH]c2=O)c1` [PLN-2-52, (3Z,6Z)-3-(3-Methoxyphenyl)methylene-6-((5-isopropyl-1-(3-morpholinyl)propylimidazol-4-yl)methylene)piperazine-2,5-dione]: the melting point fell in the range of 184 to 186 °C. The IC50 with NCI-H460 (Homo sapiens, NCI-H460, 72 h) came out at 16.5 ± 3.48 nM. In the data set on HT-29 (Homo sapiens, HT-29, 72 h), this molecule returned an IC50 of 8.49 ± 0.54 nM. Also, in the data set on HCC-LM3 (Homo sapiens, HCCLM3, 72 h), the IC50 was 7.54 ± 0.68 nM. The IC50 in the data set with BxPC-3 (Homo sapiens, BXPC-3, 72 h) came out at 13.9 ± 0.89 nM.
The molecule `CC(C)c1c(/C=c2\[nH]c(=O)/c(=C/c3cccc(OC(F)(F)F)c3)[nH]c2=O)ncn1CCCN1CCOCC1` [PLN-2-53, (3Z,6Z)-3-(3-Tifluoromethoxyphenyl)methylene-6-((5-isopropyl-1-(3-morpholinyl)propylimidazol-4-yl)methylene)piperazine-2,5-dione] registered a melting point of 251 to 253 °C. Besides, the IC50 in the data set on NCI-H460 (Homo sapiens, NCI-H460, 72 h) was found to be 11.6 ± 1.11 nM. The same molecule gave a half-maximal inhibitory concentration (IC50) in the data set with HT-29 (Homo sapiens, HT-29, 72 h) of 9.71 ± 0.74 nM. For the same molecule, the IC50 in the data set on HCC-LM3 (Homo sapiens, HCCLM3, 72 h) was 6.55 ± 1.39 nM. The IC50 in the data set on BxPC-3 (Homo sapiens, BXPC-3, 72 h) was determined as 7.17 ± 0.52 nM.
The matching figures for `CC(C)c1c(/C=c2\[nH]c(=O)/c(=C/c3cccc4ccccc34)[nH]c2=O)ncn1CCCN1CCOCC1` [PLN-2-54, (3Z,6Z)-3-(1-Naphthalenyl)methylene-6-((5-isopropyl-1-(3-morpholinyl)propylimidazol-4-yl)methylene)piperazine-2,5-dione]: 248 to 250 °C, 8.28 ± 0.91 nM, 6.55 ± 0.33 nM, 3.48 ± 2.6 nM and 5.74 ± 2.19 nM.
Taken in the same sequence, the figures for `CC(C)c1c(/C=c2\[nH]c(=O)/c(=C/c3cccc(F)c3)[nH]c2=O)ncn1CCCN1CCO[C@H](C)C1` [PLN-2-56, (3Z,6Z)-3-(3-Fluorophenyl)methylene-6-(5-isopropyl-1-(3-((R)-2-methylmorpholinyl)propylimidazol-4-yl)methylene)piperazine-2,5-dione] were 212 to 214 °C, 5.59 ± 1.4 nM, 2.62 ± 0.91 nM, 4.26 ± 0.25 nM and 3.24 ± 0.73 nM.
`CC(C)c1c(/C=c2\[nH]c(=O)/c(=C/c3cccc(F)c3)[nH]c2=O)ncn1CCCN1CCO[C@@H](C)C1` [PLN-2-57, (3Z,6Z)-3-(3-Fluorophenyl)methylene-6-(5-isopropyl-1-(3-((S)-2-methylmorpholinyl)propylimidazol-4-yl)methylene)piperazine-2,5-dione] registered a melting point of 211 to 213 °C. Further, in the data set with NCI-H460 (Homo sapiens, NCI-H460, 72 h), the IC50 was determined as 16.6 ± 4.94 nM. The same molecule returned an IC50 in the data set on HT-29 of 5.07 ± 2.12 nM. Further, in the data set on HCC-LM3 (Homo sapiens, HCCLM3, 72 h), the IC50 is 13.9 ± 2.5 nM. In addition, in the data set on BxPC-3 (Homo sapiens, BXPC-3, 72 h), the IC50 turned out to be 8.56 ± 0.01 nM.
On to `C=CC(=O)N1CCN(CCCn2cnc(/C=c3\[nH]c(=O)/c(=C/c4cccc(F)c4)[nH]c3=O)c2C(C)C)CC1` [PLN-2-61, (3Z,6Z)-3-(3-Fluorophenyl)methylene-6-(5-isopropyl-1-(3-(4-(acryloyl)piperazinyl)propylimidazol-4-yl)methylene)piperazine-2,5-dione], for which the melting point was 182 to 184 °C. Besides, the IC50 with NCI-H460 (Homo sapiens, NCI-H460, 72 h) stood at 19.6 ± 2.15 nM. For the same molecule, the IC50 with HT-29 (Homo sapiens, HT-29, 72 h) came to 14.1 ± 0.22 nM. Further, in the data set on HCC-LM3 (Homo sapiens, HCCLM3, 72 h), the IC50 came to 31.2 ± 6.92 nM. Moreover, in the data set on BxPC-3 (Homo sapiens, BXPC-3, 72 h), the IC50 was determined as 8 ± 1.15 nM.
With `C=CC(=O)N1CCN(CCCn2cnc(/C=c3\[nH]c(=O)/c(=C/c4cccc(F)c4)[nH]c3=O)c2C(C)C)CC1` [PLN-2-61-1], the melting point lay in the range of 238.6 to 240.6 °C. Further, in the data set on NCI-H460, the IC50 is 16.9 ± 1.29 nM. In the data set with HT-29, this molecule yielded an IC50 of 14 ± 0.58 nM. Further, the half-maximal inhibitory concentration (IC50) in the data set with HCC-LM3 was determined as 16.5 ± 5.66 nM. Moreover, the IC50 with BxPC-3 was found to be 9.37 ± 0.78 nM.
Consider `CC(C)c1c(/C=c2\[nH]c(=O)/c(=C/c3ccc(F)c(F)c3)[nH]c2=O)ncn1CCCN1CCOCC1` [PLN-2-63], for which the IC50 in the data set with NCI-H460 (Homo sapiens, NCI-H460, 72 h) stood at 72.2 ± 4.86 nM; in the data set with HCC-LM3 (Homo sapiens, HCCLM3, 72 h), 64.9 ± 5.12 nM; in the data set with BxPC-3 (Homo sapiens, BXPC-3, 72 h) it was 55.3 ± 3.42 nM. In addition, in data set [1], the solubility at 24 h is less than 0.5 µg/mL.
Consider `CC(C)(C)c1[nH]cnc1/C=c1\[nH]c(=O)/c(=C/c2ccccc2)[nH]c1=O` [Plinabulin hydrochloride, reference compound], for which the Solubility in data set [1] came out at 7.654 µg/mL.

As usually defined, the IC50 is the concentration that inhibits the measured activity by half. Usually solubility stands for how much of the substance goes into solution per volume. Read a low solubility as a poorly soluble substance. The term melting point denotes the temperature, or range, at which the solid turns liquid. By Solubility is commonly meant how much of the substance goes into solution per volume. A higher Solubility goes with much dissolved substance.

The values above are taken from US20240140941A1, “DERIVATIVE OF 2,5-DIKETOPIPERAZINE COMPOUND, AND PREPARATION METHOD THEREFOR, PHARMACEUTICAL COMPOSITION THEREOF AND USE THEREOF” (DALIAN WZ PROBIOTICS AD HEALTH CO., LTD, priority 2020, published 2024).
